Measured values taken from PubChem BioAssay AID248 (DTP/NCI, 2004).
Several values for one entry are separate records, joined by “and”; a condition that tells them apart may be missing. Identical values can stand only once. Inconclusive results and toxic doses are left out. Rule as the data show it: active = T/C of 150% or more; inactive = T/C below 125%.

Tested on: L1210 leukemia ip in BDF1 mice, survival T/C
Test: NCI In Vivo Anticancer Drug Screen. Data for tumor model L1210 Leukemia (intraperitoneal) in B6D2F1 (BDF1) mice
Details: endpoint: mean survival time, higher = longer survival
Method in brief: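 Ratio derived from survival: compound-dosed mice over vehicle-dosed mice, all bearing a transplantable tumor.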

[1] = dose: 100.0 mg/kg/injection, schedule: Q04DX003 (ip), vehicle: saline with Tween-80
[2] = dose: 200.0 mg/kg/injection, schedule: Q04DX003 (ip), vehicle: saline with Tween-80
[3] = dose: 400.0 mg/kg/injection, schedule: Q04DX003 (ip), vehicle: saline with Tween-80
[4] = dose: 100.0 mg/kg/injection, schedule: Q04DX003 (ip), vehicle: Klucel (hydroxypropylcellulose) (HPC)
[5] = dose: 200.0 mg/kg/injection, schedule: Q04DX003 (ip), vehicle: Klucel (hydroxypropylcellulose) (HPC)
[6] = dose: 400.0 mg/kg/injection, schedule: Q04DX003 (ip), vehicle: Klucel (hydroxypropylcellulose) (HPC)
[7] = dose: 100.0 mg/kg/injection, schedule: Q01DX001 (ip), vehicle: saline
[8] = dose: 200.0 mg/kg/injection, schedule: Q01DX001 (ip), vehicle: saline
[9] = dose: 400.0 mg/kg/injection, schedule: Q01DX001 (ip), vehicle: saline
[10] = dose: 100.0 mg/kg/injection, schedule: Q01DX009 (ip), vehicle: Klucel (hydroxypropylcellulose) (HPC)
[11] = dose: 200.0 mg/kg/injection, schedule: Q01DX009 (ip), vehicle: Klucel (hydroxypropylcellulose) (HPC)
[12] = dose: 400.0 mg/kg/injection, schedule: Q01DX009 (ip), vehicle: Klucel (hydroxypropylcellulose) (HPC)
[13] = dose: 50.0 mg/kg/injection, schedule: Q01DX009 (ip), vehicle: Klucel (hydroxypropylcellulose) (HPC)
[14] = dose: 100.0 mg/kg/injection, schedule: Q04DX003 (ip), vehicle: saline

Measured: T/C

COC1/C=C/O[C@@]2(C)Oc3c(C)c(O)c4c(O)c(cc(O)c4c3C2=O)NC(=O)/C(C)=C\C=C\[C@H](C)C(O)[C@@H](C)[C@@H](O)[C@@H](C)[C@H](OC(C)=O)[C@@H]1C (some centres not stated)
inactive: dose: 4.0 mg/kg/injection, schedule: Q03HX040 (ip), vehicle: saline 101 % of control | dose: 8.0 mg/kg/injection, schedule: Q03HX040 (ip), vehicle: saline 103 % of control | dose: 16.0 mg/kg/injection, schedule: Q03HX040 (ip), vehicle: saline 97 % of control | dose: 100.0 mg/kg/injection, schedule: Q01DX009 (ip), vehicle: saline with Tween-80 104 % of control | [1] 95 % of control | dose: 119.0 mg/kg/injection, schedule: Q01DX009 (ip), vehicle: saline 98 % of control | dose: 128.0 mg/kg/injection, schedule: Q03HX024 (ip), vehicle: saline 92 % of control | dose: 128.0 mg/kg/injection, schedule: Q03HX040 (ip), vehicle: saline 89 % of control | dose: 178.0 mg/kg/injection, schedule: Q01DX009 (ip), vehicle: saline 96 % of control | dose: 200.0 mg/kg/injection, schedule: Q01DX009 (ip), vehicle: saline with Tween-80 92 % of control | [2] 87 % of control | dose: 256.0 mg/kg/injection, schedule: Q03HX024 (ip), vehicle: saline 93 % of control | dose: 267.0 mg/kg/injection, schedule: Q01DX009 (ip), vehicle: saline 98 % of control | dose: 400.0 mg/kg/injection, schedule: Q01DX009 (ip), vehicle: saline with Tween-80 97 % of control | dose: 400.0 mg/kg/injection, schedule: Q01DX009 (ip), vehicle: saline 104 % of control | [3] 101 % of control | dose: 512.0 mg/kg/injection, schedule: Q03HX024 (ip), vehicle: saline 92 % of control | dose: 512.0 mg/kg/injection, schedule: Q03HX040 (ip), vehicle: saline 88 % of control | dose: 1024.0 mg/kg/injection, schedule: Q03HX024 (ip), vehicle: saline 98 % of control

CC12CCC(C/C1=C\C#N)C(C)(C)O2 (configuration not stated)
inactive: [4] 98 % of control | [5] 98 % of control | [6] 101 % of control

CC(NC(=O)NCCCl)c1cccc2ccccc12 (configuration not stated)
inactive: [4] 102 % of control | [5] 103 % of control | [6] 95 % of control

CCC(O)C(C)CO (configuration not stated)
inactive: [7] 103 % of control | [8] 121 % of control | [9] 97 % of control

C[CH2][Sn](/[CH]=C\CO)([CH2]C)[CH2]C
inactive: dose: 0.78 mg/kg/injection, schedule: Q01DX009 (ip), vehicle: saline 86 % of control | dose: 1.56 mg/kg/injection, schedule: Q01DX009 (ip), vehicle: saline 104 % of control | dose: 3.12 mg/kg/injection, schedule: Q01DX009 (ip), vehicle: saline 90 % of control

COC(=O)c1ccc(S(=O)(=O)O)cc1[N+](=O)[O-]
inactive: dose: 100.0 mg/kg/injection, schedule: Q04DX002 (ip), vehicle: saline 100 % of control | dose: 200.0 mg/kg/injection, schedule: Q04DX002 (ip), vehicle: saline 88 % of control | dose: 400.0 mg/kg/injection, schedule: Q04DX002 (ip), vehicle: saline 96 % of control

CC(=O)N(C)C
inactive: dose: 62.5 mg/kg/injection, schedule: Q01DX010 (ip), vehicle: saline 94 % of control and 97 % of control | dose: 125.0 mg/kg/injection, schedule: Q01DX010 (ip), vehicle: saline 105 % of control and 91 % of control | dose: 250.0 mg/kg/injection, schedule: Q01DX010 (ip), vehicle: saline 103 % of control and 91 % of control | dose: 500.0 mg/kg/injection, schedule: Q01DX001 (ip), vehicle: saline 101 % of control | dose: 500.0 mg/kg/injection, schedule: Q01DX010 (ip), vehicle: saline 100 % of control and 89 % of control | dose: 900.0 mg/kg/injection, schedule: Q01DX Z (ip), vehicle: other 106 % of control | dose: 1000.0 mg/kg/injection, schedule: Q01DX001 (ip), vehicle: saline 100 % of control | dose: 2000.0 mg/kg/injection, schedule: Q01DX001 (ip), vehicle: saline 97 % of control | dose: 3000.0 mg/kg/injection, schedule: Q01DX Z (ip), vehicle: other 87 % of control

CN(C)c1ccc(P(c2ccc(N(C)C)cc2)c2ccc(N(C)C)cc2)cc1
inactive: [10] 91 % of control | [4] 95 % of control | [11] 91 % of control | [5] 95 % of control | [12] 87 % of control | [6] 95 % of control

CN(C)C(=S)SCC(=O)c1ccccc1
inactive: dose: 2.5 mg/kg/injection, schedule: Q01DX009 (ip), vehicle: saline with Tween-80 93 % of control | dose: 5.0 mg/kg/injection, schedule: Q01DX009 (ip), vehicle: saline with Tween-80 89 % of control | dose: 10.0 mg/kg/injection, schedule: Q01DX009 (ip), vehicle: saline with Tween-80 105 % of control

O=C(O)c1cc(=O)cc(C(=O)O)[nH]1
inactive: [10] 102 % of control | [4] 102 % of control | [11] 96 % of control | [5] 96 % of control | [12] 92 % of control | [6] 104 % of control

Cc1nnc(NS(=O)(=O)c2ccc(N=Nc3ccc(O)c4ncccc34)cc2)s1
inactive: [7] 105 % of control | [8] 102 % of control | [9] 96 % of control

Cc1nc2[nH][nH]c(=O)c2nc1C
inactive: [13] 94 % of control | [10] 100 % of control | [4] 97 % of control | [11] 94 % of control | [5] 105 % of control | [6] 102 % of control

CCC1CN2CCc3cc(OC)c(OC)cc3C2CC1CC1c2cc(OC)c(OC)cc2CCN1C(=O)C(N)Cc1ccccc1 (configuration not stated)
inactive: [7] 107 % of control | [8] 97 % of control | [9] 110 % of control

CCOC(=O)CNS(=O)(=O)CCN1C(=O)c2ccccc2C1=O
inactive: dose: 50.0 mg/kg/injection, schedule: Q04DX003 (ip), vehicle: Klucel (hydroxypropylcellulose) (HPC) 98 % of control | [4] 100 % of control | [5] 98 % of control

O/N=C\C[n+]1cc2ccccc2cc1/C=N\O
inactive: dose: 25.0 mg/kg/injection, schedule: Q01DX009 (ip), vehicle: saline 97 % of control | dose: 50.0 mg/kg/injection, schedule: Q01DX009 (ip), vehicle: saline 97 % of control | dose: 100.0 mg/kg/injection, schedule: Q01DX009 (ip), vehicle: saline 104 % of control | [14] 98 % of control

COc1cc(OC)c(NC(=O)/C=C/c2ccccc2)cc1Cl
inactive: [10] 92 % of control | [11] 100 % of control | [12] 95 % of control

CN(C)N=Nc1ccc2c(c1)C(=O)NC2=O
inactive: [1] 96 % of control | [2] 99 % of control | [3] 99 % of control

Cc1ccc(Oc2ccc(C(=O)O)cc2)cc1
inactive: [4] 96 % of control | [5] 102 % of control | [6] 103 % of control

O=C(NNc1ccccc1)C1C2CC3OC(=O)C1C3C2 (configuration not stated)
inactive: [14] 93 % of control | dose: 200.0 mg/kg/injection, schedule: Q04DX003 (ip), vehicle: saline 98 % of control | dose: 400.0 mg/kg/injection, schedule: Q04DX003 (ip), vehicle: saline 96 % of control

CNc1nc(N(C)C)nc(C)c1[N+](=O)[O-]
inactive: [13] 91 % of control | [10] 98 % of control | [11] 105 % of control
